Conditions: Liquid, Vibrating tube method

CC(C)C(C)C(C)C [2,3,4-trimethylpentane]
Conditions	mass density [kg/m3]
283.15 K, 130 kPa	728.3
283.15 K, 4973 kPa	732.2
283.15 K, 9993 kPa	736
283.15 K, 14965 kPa	739.6
283.15 K, 20000 kPa	743
283.15 K, 25003 kPa	746.3
283.15 K, 29990 kPa	749.5
283.15 K, 35009 kPa	752.5
283.15 K, 39961 kPa	755.4
283.15 K, 45014 kPa	758.3
283.15 K, 49986 kPa	761
283.15 K, 54944 kPa	763.6
283.15 K, 60030 kPa	766.3
283.15 K, 65014 kPa	768.8
288.15 K, 102 kPa	724.3
288.15 K, 5015 kPa	728.4
288.15 K, 9991 kPa	732.3
288.15 K, 14975 kPa	736
288.15 K, 20038 kPa	739.6
288.15 K, 25021 kPa	743
288.15 K, 29929 kPa	746.1
288.15 K, 35037 kPa	749.3
288.15 K, 40039 kPa	752.3
288.15 K, 44998 kPa	755.2
288.15 K, 49927 kPa	757.9
288.15 K, 54967 kPa	760.6
288.15 K, 59925 kPa	763.2
288.15 K, 65032 kPa	765.9
293.15 K, 111 kPa	720.4
293.15 K, 5021 kPa	724.6
293.15 K, 9998 kPa	728.6
293.15 K, 14997 kPa	732.4
293.15 K, 19997 kPa	736.1
293.15 K, 25022 kPa	739.6
293.15 K, 29930 kPa	742.8
293.15 K, 34968 kPa	746
293.15 K, 39974 kPa	749.1
293.15 K, 45009 kPa	752
293.15 K, 49965 kPa	754.9
293.15 K, 54987 kPa	757.6
293.15 K, 59945 kPa	760.3
293.15 K, 65000 kPa	762.9
298.15 K, 105 kPa	716.2
298.15 K, 5072 kPa	720.6
298.15 K, 9964 kPa	724.7
298.15 K, 15013 kPa	728.7
298.15 K, 20054 kPa	732.5
298.15 K, 25008 kPa	736
298.15 K, 29968 kPa	739.4
298.15 K, 34937 kPa	742.6
298.15 K, 40018 kPa	745.8
298.15 K, 45064 kPa	748.8
298.15 K, 50010 kPa	751.7
298.15 K, 55015 kPa	754.5
298.15 K, 59955 kPa	757.2
298.15 K, 65024 kPa	759.9
303.15 K, 100 kPa	712
303.15 K, 4934 kPa	716.5
303.15 K, 10038 kPa	720.9
303.15 K, 14973 kPa	724.9
303.15 K, 19957 kPa	728.7
303.15 K, 25002 kPa	732.4
303.15 K, 29980 kPa	735.9
303.15 K, 34972 kPa	739.3
303.15 K, 39972 kPa	742.5
303.15 K, 44990 kPa	745.6
303.15 K, 49984 kPa	748.5
303.15 K, 54948 kPa	751.4
303.15 K, 59951 kPa	754.2
303.15 K, 65040 kPa	756.9
308.15 K, 92 kPa	707.8
308.15 K, 5051 kPa	712.5
308.15 K, 9961 kPa	716.8
308.15 K, 14959 kPa	721
308.15 K, 20027 kPa	725
308.15 K, 25025 kPa	728.8
308.15 K, 29996 kPa	732.4
308.15 K, 34959 kPa	735.7
308.15 K, 40017 kPa	739.1
308.15 K, 45023 kPa	742.2
308.15 K, 49965 kPa	745.2
308.15 K, 54977 kPa	748.2
308.15 K, 60020 kPa	751
308.15 K, 64995 kPa	753.8
313.15 K, 99 kPa	703.6
313.15 K, 4997 kPa	708.5
313.15 K, 9998 kPa	713.1
313.15 K, 15010 kPa	717.4
313.15 K, 19994 kPa	721.4
313.15 K, 25007 kPa	725.3
313.15 K, 29995 kPa	729
313.15 K, 35008 kPa	732.4
313.15 K, 39993 kPa	735.8
313.15 K, 45005 kPa	739
313.15 K, 49990 kPa	742.1
313.15 K, 55003 kPa	745.1
313.15 K, 59996 kPa	748
313.15 K, 64993 kPa	750.8
318.15 K, 104 kPa	699.5
318.15 K, 4961 kPa	704.4
318.15 K, 10003 kPa	709.2
318.15 K, 15026 kPa	713.7
318.15 K, 19937 kPa	717.8
318.15 K, 25012 kPa	721.8
318.15 K, 29990 kPa	725.5
318.15 K, 34991 kPa	729.1
318.15 K, 39976 kPa	732.5
318.15 K, 45028 kPa	735.8
318.15 K, 49973 kPa	739
318.15 K, 54916 kPa	742
318.15 K, 59988 kPa	744.9
318.15 K, 65015 kPa	747.8
323.15 K, 111 kPa	695.4
323.15 K, 5025 kPa	700.6
323.15 K, 10013 kPa	705.5
323.15 K, 14973 kPa	710
323.15 K, 20028 kPa	714.4
323.15 K, 25014 kPa	718.4
323.15 K, 29976 kPa	722.2
323.15 K, 34994 kPa	725.9
323.15 K, 39992 kPa	729.4
323.15 K, 45046 kPa	732.8
323.15 K, 49980 kPa	736
323.15 K, 54968 kPa	739.1
323.15 K, 59988 kPa	742.1
323.15 K, 65068 kPa	745
328.15 K, 94 kPa	691.3
328.15 K, 4971 kPa	696.6
328.15 K, 9997 kPa	701.7
328.15 K, 14959 kPa	706.4
328.15 K, 19969 kPa	710.9
328.15 K, 25055 kPa	715.1
328.15 K, 29960 kPa	719
328.15 K, 34966 kPa	722.7
328.15 K, 40013 kPa	726.3
328.15 K, 45034 kPa	729.8
328.15 K, 50015 kPa	733.1
328.15 K, 54973 kPa	736.2
328.15 K, 59955 kPa	739.2
328.15 K, 64992 kPa	742.2
333.15 K, 95 kPa	687.1
333.15 K, 4934 kPa	692.6
333.15 K, 9973 kPa	697.9
333.15 K, 14973 kPa	702.8
333.15 K, 19993 kPa	707.4
333.15 K, 24959 kPa	711.6
333.15 K, 29952 kPa	715.7
333.15 K, 34974 kPa	719.5
333.15 K, 39961 kPa	723.2
333.15 K, 44999 kPa	726.7
333.15 K, 49992 kPa	730.1
333.15 K, 54798 kPa	733.2
333.15 K, 59952 kPa	736.4
333.15 K, 65050 kPa	739.5
338.15 K, 115 kPa	683.1
338.15 K, 4978 kPa	688.9
338.15 K, 9970 kPa	694.3
338.15 K, 14966 kPa	699.3
338.15 K, 19960 kPa	703.9
338.15 K, 24994 kPa	708.4
338.15 K, 30030 kPa	712.5
338.15 K, 34973 kPa	716.3
338.15 K, 39979 kPa	720
338.15 K, 45024 kPa	723.6
338.15 K, 50019 kPa	727.1
338.15 K, 54928 kPa	730.3
338.15 K, 59953 kPa	733.5
338.15 K, 64998 kPa	736.6
343.15 K, 109 kPa	678.8
343.15 K, 5084 kPa	684.9
343.15 K, 9963 kPa	690.4
343.15 K, 15039 kPa	695.6
343.15 K, 20010 kPa	700.4
343.15 K, 24998 kPa	704.9
343.15 K, 30054 kPa	709.2
343.15 K, 35048 kPa	713.2
343.15 K, 40023 kPa	717
343.15 K, 44967 kPa	720.6
343.15 K, 50023 kPa	724.2
343.15 K, 54967 kPa	727.5
343.15 K, 59995 kPa	730.7
343.15 K, 64954 kPa	733.8
348.15 K, 112 kPa	674.5
348.15 K, 5011 kPa	680.8
348.15 K, 10066 kPa	686.6
348.15 K, 14992 kPa	691.9
348.15 K, 19955 kPa	696.8
348.15 K, 25042 kPa	701.5
348.15 K, 29986 kPa	705.8
348.15 K, 35004 kPa	709.9
348.15 K, 40002 kPa	713.9
348.15 K, 44996 kPa	717.6
348.15 K, 49994 kPa	721.1
348.15 K, 54995 kPa	724.6
348.15 K, 60005 kPa	727.9
348.15 K, 65009 kPa	731
353.15 K, 109 kPa	670.1
353.15 K, 4963 kPa	676.6
353.15 K, 9919 kPa	682.5
353.15 K, 15039 kPa	688.2
353.15 K, 19995 kPa	693.2
353.15 K, 24983 kPa	698
353.15 K, 29960 kPa	702.4
353.15 K, 34985 kPa	706.7
353.15 K, 39983 kPa	710.7
353.15 K, 45037 kPa	714.5
353.15 K, 49989 kPa	718.1
353.15 K, 54953 kPa	721.6
353.15 K, 59909 kPa	724.9
353.15 K, 65052 kPa	728.2
358.15 K, 118 kPa	665.9
358.15 K, 4955 kPa	672.5
358.15 K, 9916 kPa	678.7
358.15 K, 15035 kPa	684.5
358.15 K, 19946 kPa	689.6
358.15 K, 25037 kPa	694.6
358.15 K, 29963 kPa	699.2
358.15 K, 35027 kPa	703.4
358.15 K, 40010 kPa	707.5
358.15 K, 44955 kPa	711.4
358.15 K, 50023 kPa	715.1
358.15 K, 54980 kPa	718.7
358.15 K, 59952 kPa	722
358.15 K, 65021 kPa	725.4
363.15 K, 101 kPa	661.3
363.15 K, 4941 kPa	668.3
363.15 K, 9928 kPa	674.7
363.15 K, 15005 kPa	680.6
363.15 K, 19958 kPa	686
363.15 K, 24923 kPa	691
363.15 K, 29983 kPa	695.8
363.15 K, 34922 kPa	700.1
363.15 K, 39992 kPa	704.4
363.15 K, 45038 kPa	708.4
363.15 K, 49985 kPa	712.2
363.15 K, 54981 kPa	715.8
363.15 K, 59985 kPa	719.3
363.15 K, 65038 kPa	722.6

— the NIST ThermoML archive (doi:10.1021/acs.jced.9b00846)
